Reference: patent US10934310B2, “Inhibitors of Bruton's tyrosine kinase and method of their use” (JANSSEN PHARMACEUTICA NV, priority 2015, dated 2021)

Target: unphosphorylated-BTK kinase domain (UP-BTK), GST-tagged human BTK (389-659aa) (Homo sapiens (Human), UniProt Q06187)
Test: BTK Kinase Lanthascreen Binding Assay
Details: pIC50 = negative log of the IC50 in molar
Procedure: BTK Kinase Lanthascreen Binding Assay:
A BTK kinase lanthascreen binding assay monitors compound binding to unphosphorylated-BTK kinase domain (UP-BTK), by competing with a fluorescent labeled tracer. […] Data were analyzed using Xlfit™ version 5.3 from ID Business Solutions (Guildford), Microsoft Excel add-in. pIC50 refers to the negative log of the IC50 in molar.

[1] = compound, 50 nM Tracer 236, 2 nM anti-GST antibody, 60 minutes
[2] = Lanthascreen binding, 60 minutes incubation

Chain of unphosphorylated-BTK kinase domain (UP-BTK), GST-tagged human BTK (389-659aa) (Q06187 389-659): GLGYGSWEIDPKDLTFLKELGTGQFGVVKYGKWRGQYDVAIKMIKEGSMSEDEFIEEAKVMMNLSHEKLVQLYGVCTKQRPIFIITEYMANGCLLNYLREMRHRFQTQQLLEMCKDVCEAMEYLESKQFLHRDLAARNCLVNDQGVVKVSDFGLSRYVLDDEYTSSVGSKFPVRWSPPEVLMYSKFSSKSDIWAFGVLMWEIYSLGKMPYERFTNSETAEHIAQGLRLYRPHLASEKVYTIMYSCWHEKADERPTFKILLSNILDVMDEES

**Q.** With `CN[C@H]1CCC[C@@H]1NC(=O)c1sc2nccc3c2c1NC(=O)N3c1ccc(Oc2ccccc2)cc1C` [Example 46, 5-(2-Methyl-4-phenoxyphenyl)-N-((1S,2S)-2-(methylamino)cyclopentyl)-4-oxo-4,5-dihydro-3H-1-thia-3,5,8-triazaacenaphthylene-2-carboxamide] as the molecule, how does the “BTK_I_binding pIC50” value [1] read?
**A.** The value was 6.14.

**Q.** Which “BTK_I_binding pIC50” value [1] does the source give for `CO[C@H]1CC[C@H](NC(=O)c2sc3nccc4c3c2NC(=O)N4c2ccc(Oc3ccccc3)cc2C)CC1` [Example 18, N-((1R,4R)-4-Methoxycyclohexyl)-5-(2-methyl-4-phenoxyphenyl)-4-oxo-4,5-dihydro-3H-1-thia-3,5,8-triazaacenaphthylene-2-carboxamide] here?
**A.** Its value is 6.99.

**Q.** Which “BTK_I_binding pIC50” value [1] does the source give for `O=C(N[C@H]1CCC[C@@H](O)C1)c1sc2nccc3c2c1NC(=O)N3c1ccc(Oc2ccccc2)cc1` [Example 157, N-((1S,3R)-3-Hydroxycyclohexyl)-4-oxo-5-(4-phenoxyphenyl)-4,5-dihydro-3H-1-thia-3,5,8-triazaacenaphthylene-2-carboxamide] here?
**A.** The value was 6.19.

**Q.** How did the “BTK_I_binding pIC50” value [1] turn out when `CC(=O)N[C@H]1CCC[C@H]1NC(=O)c1sc2nccc3c2c1NC(=O)N3c1ccc(Oc2ccccc2)cc1C` (single isomer, unassigned) [Example 138, N-((1R,2S)-2-Acetamidocyclopentyl)-5-(*S)-(2-methyl-4-phenoxyphenyl)-4-oxo-4,5-dihydro-3H-1-thia-3,5,8-triazaacenaphthylene-2-carboxamide] was run?
**A.** The value was 7.49.

**Q.** Which “BTK_I_binding pIC50” value [2] does the source give for `CCC(=O)N[C@@H]1CC[C@@H](NC(=O)c2sc3nccc4c3c2NC(=O)N4c2cnc(Oc3ccccc3)cc2C)C1` (single isomer, unassigned) [Example 388, 5-(*S)-(4-Methyl-6-phenoxypyridin-3-yl)-4-oxo-N-((1R,3R)-3-propionamidocyclopentyl)-4,5-dihydro-3H-1-thia-3,5,8-triazaacenaphthylene-2-carboxamide] here?
**A.** Its value is 7.64.

**Q.** How did the “BTK_I_binding pIC50” value [1] turn out when `C=CC(=O)N[C@@H]1CCC[C@@H](NC(=O)c2sc3nccc4c3c2NC(=O)N4c2ccnc(-c3ccccc3)c2)C1` [Example 232, N-((1R,3R)-3-Acrylamidocyclohexyl)-4-oxo-5-(2-phenylpyridin-4-yl)-4,5-dihydro-3H-1-thia-3,5,8-triazaacenaphthylene-2-carboxamide] was run?
**A.** Its value is 7.05.

**Q.** With `C=CC(=O)N[C@@H]1CCC[C@H]1NC(=O)c1sc2nccc3c2c1NC(=O)N3c1ccnc(C2CCC2)c1` [Example 379, N-((1R,2R)-2-Acrylamidocyclopentyl)-5-(2-cyclobutylpyridin-4-yl)-4-oxo-4,5-dihydro-3H-1-thia-3,5,8-triazaacenaphthylene-2-carboxamide] as the molecule, how does the “BTK_I_binding pIC50” value [2] read?
**A.** Its value is 6.80.

**Q.** `Cc1cc(Oc2ccccc2)ccc1N1C(=O)Nc2c(C(=O)N[C@@]34C[C@@H]5C[C@@H](C[C@@](O)(C5)C3)C4)sc3nccc1c23` [Example 30, N-((1r,3s,5R,7S)-3-Hydroxyadamantan-1-yl)-5-(2-methyl-4-phenoxyphenyl)-4-oxo-4,5-dihydro-3H-1-thia-3,5,8-triazaacenaphthylene-2-carboxamide] was tested. Which “BTK_I_binding pIC50” value [1] did it give?
**A.** Its value is 6.36.

**Q.** With `C=CC(=O)N[C@H]1CCC[C@H]1NC(=O)c1sc2nccc3c2c1NC(=O)N3c1ccc(Oc2cncnc2)cc1C` [Example 482, N-((1R,2S)-2-Acrylamidocyclopentyl)-5-(2-methyl-4-(pyrimidin-5-yloxy)phenyl)-4-oxo-4,5-dihydro-3H-1-thia-3,5,8-triazaacenaphthylene-2-carboxamide] as the molecule, how does the “BTK_I_binding pIC50” value [2] read?
**A.** The value was 7.79.

**Q.** Which “BTK_I_binding pIC50” value [2] does the source give for `CCC(=O)N[C@H]1CCCC[C@H]1NC(=O)c1sc2nccc3c2c1NC(=O)N3c1cnc(Oc2ccccc2)cc1C` (relative stereo) [Example 381, 5-(*S)-(4-Methyl-6-phenoxypyridin-3-yl)-4-oxo-N-((1R,2S)-2-propionamidocyclohexyl)-4,5-dihydro-3H-1-thia-3,5,8-triazaacenaphthylene-2-carboxamide] here?
**A.** Its value is 6.75.

**Q.** For `C=CC(=O)N[C@@H]1CC[C@H](NC(=O)c2sc3nccc4c3c2NC(=O)N4c2ccc(Oc3ccccc3)cn2)C1` (single isomer, unassigned) [Example 313], which “BTK_I_binding pIC50” value [2] is on record?
**A.** The value was 7.83.
